Experimental data as given in the NIST ThermoML archive (doi:10.1016/j.fluid.2008.06.011).

Assay: excess molar enthalpy (molar enthalpy of mixing); xn = mol fraction of the nth substance listed
Conditions: 298.15 K, 101 kPa, Liquid, Calvet calorimetry

CCCCCCCCCC [decane] + CCCO
Conditions | excess molar enthalpy [kcal/mol]
x2 = 0.1544 | 0.158
x2 = 0.1615 | 0.162
x2 = 0.2718 | 0.184
x2 = 0.3642 | 0.189
x2 = 0.4594 | 0.188
x2 = 0.5576 | 0.176
x2 = 0.6121 | 0.165
x2 = 0.6669 | 0.151
x2 = 0.7249 | 0.136
x2 = 0.7574 | 0.125
x2 = 0.7667 | 0.123
x2 = 0.8113 | 0.107
x2 = 0.8517 | 0.0894
x2 = 0.885 | 0.0741
x2 = 0.9219 | 0.0535
x2 = 0.9602 | 0.0292
x2 = 0.9832 | 0.0103
